Peptide text beside a SMILES is read from it.
How the values were obtained:
[1] = tested on: hepatic reperfusion-injury; details: rat model; cited from earlier work
[2] = tested on: clinical markers of liver injury; experiment: Secondary analysis of phase II crossover trial of Alanyl-Glutamine supplementation to PDF, liver tests; assay type: in vivo, human; details: patients on chronic PD, n=41, crossover
From the text: To further investigate the effect of Alanyl-Glutamine supplementation to PDF in human PD-induced hepatic (dys)function, the inventors conducted a secondary analysis of a prospective, multicenter, double-blinded, controlled, randomized, dual-period, 2-treatment, crossover, phase II, proof-of-concept study including eight Austrian centers for Alanyl-Glutamine supplementation to the PDF in patients on chronic PD.
This study cohort and its baseline characteristics have already been previously described by Vychytil et al (8).

[3] = tested on: PD induced hepatic inflammatory response; experiment: Murine chronic PD exposure model, liver histology (NAS, Oil Red O, Sirius Red); assay type: in vivo; details: uremic mice with PD, PDF supplemented with Alanyl-Glutamine 8 mM
From the text: (§1) The inventors conducted a murine PD exposure experiment resembling chronic PD in healthy and uremic mice: The experiment consisted of n=34 animals in six distinct groups.
(§2) The animals were split in the following groups: • 1) Healthy control animals ("control") • 2) Healthy animals receiving PD treatment (via an indwelling catheter) ("PD") • 3) Healthy animals receiving PD treatment (via an indwelling catheter) supplemented with Alanyl-Glutamine ("PD+AG") • 4) Uremic animals ("uremic") • 5) Uremic animals receiving PD treatment (via an indwelling catheter) ("uremic PD") • 6) Uremic animals receiving PD treatment (via an indwelling catheter) supplemented with Alanyl-Glutamine ("uremic PD+AG")
(§3) All animals of the uremic groups (Groups 4, 5, and 6) were subjected to left-sided 2/3 nephrectomy at day 0 of the study, and to complete right-sided nephrectomy at day 7 of the study, thereby inducing chronic kidney disease.
(§4) All animals receiving PD treatment (Groups 2, 3, 5, and 6) had their indwelling catheter implanted at day 7 of the study.
Animals in groups 2,3, 5, and 6 received daily PDF (Dianeal PD4 3.86% [Baxter, Deerfield, IL, USA]) injections via their indwelling catheter starting from day 14 over the course of six weeks, thereby inducing chronic PDF exposure.
For animals of groups 3 and 6 the daily PDF injections were supplemented with Alanyl-Glutamine (8 mM) over the course of six weeks.
At sacrifice (day 56 of the study), animal livers were subjected to histologic analysis.
NAFLD activity score (NAS) assessment was conducted as previously described (47) on hematoxylin & eosin (H&E) stained hepatic tissue on one facial field image per mouse.
Steatosis hepatis was assessed by semi-quantitative measurement of Oil Red O stained hepatic tissue with one facial field image per mouse.
Fibrosis hepatis was assessed by semi-quantitative measurement of Sirius Red stained hepatic tissue with one facial field image per mouse.

[4] = tested on: LPS-induced acute liver injury; details: mice; cited from earlier work
[5] = tested on: steatohepatitis and fibrosis; details: murine NAFLD model; cited from earlier work
[6] = tested on: acute-phase-response- and inflammation-associated proteins within the liver; experiment: Murine chronic PD exposure model, mass spectrometry proteomics analysis of liver; assay type: in vivo, mice; details: liver of uremic animals receiving PD; of 57 proteins dysregulated by PD; p<0.05
From the text: as §1, §2, §3, §4
Animals in groups 2,3, 5, and 6 received daily PDF (Dianeal PD4 3.86% [Baxter, Deerfield, IL, USA]) injections via their indwelling catheter starting from day 14 over the course of six weeks, thereby inducing chronic PDF exposure. […]

systemic inflammation = details: addition to PDF in PD patients; tendency for hs-CRP and IL-6, statistical significance with IL-8; cited from earlier work
[7] = log10 transformed due to skewness
[8] = H&E liver sections, daily over six weeks, vs uremic PD

## C[C@H](N)C(=O)N[C@@H](CCC(N)=O)C(=O)O [Alanyl-Glutamine, L-alanyl-L-glutamine] (H-Ala-Gln-OH)
[1]
  hepatic reperfusion-injury: reduce hepatic reperfusion-injury
[2]; [7]
  GGT, Least squares mean (95% CI): 1.41 (1.37 to 1.46) U/L
  GOT/AST, Least squares mean (95% CI): 1.23 (1.19 to 1.27) U/L
  GPT/ALT, Least squares mean (95% CI): 1.20 (1.15 to 1.25) U/L
  LDH, Least squares mean (95% CI): 2.30 (2.27 to 2.32) U/L
[2]; log10 transformed, p value 0.0206
  LDH, Difference Alanyl-Glutamine-placebo, estimate ± SE: -0.03 ± 0.01 U/L
[2]; log10 transformed, p value 0.0466
  GPT/ALT, Difference Alanyl-Glutamine-placebo, estimate ± SE: -0.06 ± 0.03 U/L
[2]; log10 transformed, p value 0.1877
  GOT/AST, Difference Alanyl-Glutamine-placebo, estimate ± SE: -0.04 ± 0.03 U/L
[2]; log10 transformed, p value 0.4901
  GGT, Difference Alanyl-Glutamine-placebo, estimate ± SE: -0.02 ± 0.02 U/L
[3]; [8]
  areas of hepatocyte ballooning: decreased
  numbers of inflammatory immune cell infiltrates: markedly decreased
[3]; liver sections
  PD induced fibrosis (% area of Sirius Red stained tissue): trends of improvement
  PD induced steatosis (% area of Oil Red O stained tissue): trends of improvement
[3]; daily over six weeks, vs uremic PD, Mann Whitney U test
  NAFLD activity score (NAS): significantly (p<0.05) decreased
[4]
  LPS-induced acute liver injury: protect mice against LPS-induced acute liver injury
[5]
  steatohepatitis and fibrosis: significantly attenuate steatohepatitis and fibrosis
[6]
  number of acute-phase-response- and inflammation-associated proteins with significantly altered abundance: 11
Systemic inflammation
  systemic inflammation (hs-CRP, IL-6, IL-8): attenuate systemic inflammation

— patent EP4424307A1, “PROTECTIVE AGENT FOR USE IN PERITONEAL DIALYSIS” (Zytoprotec GmbH, priority 2023, dated 2024)
